Laboratory results published in US20040133038A1, “Method of purifying aromatic polycarboxylic acid” (priority 2001, published 2004).
Where two headings read alike, the source gives them in different places.

Experiment: solubility in water
Format: physicochemical

O=C(O)c1ccc2cc(C(=O)O)ccc2c1 [2,6-naphthalenedicarboxylic acid]
amount dissolved in 600 g of water, calculated from the solubility: 36 g

O=C(O)c1ccc(C(=O)O)cc1 [terephthalic acid]
solubility in water: 6.5 g/100 g | amount dissolved in 600 g of water, calculated from the solubility (600 g of water, 230° C.): 39 g

O=C(O)c1ccc(-c2ccc(C(=O)O)cc2)cc1 [biphenyldicarboxylic acid]
solubility in water relative to that of terephthalic acid: 1/10

O=C(O)c1ccc2cc(C(=O)O)ccc2c1 [naphthalenedicarboxylic acid]
solubility in water relative to that of terephthalic acid (fraction of the solubility of terephthalic acid): 1/10
